Measurements reported in US10526371B2, “Hydrogel-forming peptides” (Universiteit Gent, priority 2015, dated 2020).
“And” between values parts separate entries of the source, which are not always exact repeats. Equal entries are not always repeated. Square brackets hold non-standard residues; d marks the D form. Peptide text beside a SMILES is read from it. β3hF = N[C@H](CC(=O)O)Cc1ccccc1

Columns and labels:
elastase [1] = experiment: Proteolytic stability of hydrogels (elastase solution on top of hydrogel); format: in vitro ADME; conditions: for macroscopic aggregation / physical degradation: over 42 days; for time at which hydrogel changed into an opaque structure / gel degradation time (hydrogel unstable/fluid-like): elastase 60 μM in 10 mM PBS on top; for gel degradation time (hydrogel unstable/fluid-like): room temperature
Method: (B) The proteolytic stability of the hydrogels was analyzed by placing an elastase solution (60 μM in 10 mM PBS) on top of the hydrogel. In all the stability experiments a total volume of 4 mL (gel+PBS solution with and without enzyme) was obtained. The addition of the enzyme solution on top of the hydrogel was set as the starting point of the gel-degradation experiments; B. At specific time-intervals (0 h, 24 h, 2 days, 3 days, 4 days, 5 days, 6 days, 7 days, 2 weeks, 3 weeks, etc.) the liquid portion on top of the hydrogel was removed using a pipette and the hydrogel's volume was estimated using following formula: VTotal−VLiquid portion=VHydrogel (1)
wherein VTotal is the total volume and remains at 4 mL and VLiquid portion is the volume measured of the liquid portion after each sampling interval. At each sampling interval the pH was also measured; C. A picture of the inverted glass tube, only containing the self-sustaining non-fluid-like hydrogel, was taken in order to assess the physical deformation of the hydrogel and volume-loss; D. The PBS, mQ or enzyme solution is gently replaced on top of the hydrogel using a pipette, allowing repetition of steps A-D. Between sampling-intervals the glass tubes were kept undisturbed at room temperature. The gel degradation time was defined as the period required for complete disintegration of the hydrogels into liquid under observation of the naked eye.
(C) In a next step, the stability and degradation profiles of the mixed α/β-hydrogels were investigated using this methodology. During the first hours after addition of the elastase to peptide SEQ ID NO 1 hydrogel, no apparent physical deformation was observed. The collected liquid portion (on top of the hydrogel) measured 3 mL (during the first 10 hours). […] In comparison to the α-peptide 1 hydrogel the degradation time of peptide SEQ ID NO 1 hydrogel was extended from 3.5 days to 5.5 days. However, the physical alteration of this hydrogel into an opaque structure was already observed after one day.

elastase [2] = experiment: Enzymatic degradation study of peptides in non-gelating conditions; format: in vitro ADME; conditions: peptide 350 μM, elastase 60 μM, 37° C.
Method: The following biodegradation experiments were performed in order to assess biostability of peptides of the invention toward elastase, a prominent enzyme present in the subcutaneous compartment.
The following buffer was used to assay the proteolytic stability of the peptides towards elastase: 10 mM PBS at pH 7.2. First, a stock solution of elastase (60 μM in 10 mM PBS) was prepared. Peptides SEQ ID NO 1, 2 and 3 and reference α-peptide SEQ ID NO 23 were subjected to the degradation study and prepared as a stock solution of 350 μM in mQ water (with a resistivity of […]). Enzymatic degradation was carried out by incubation of peptide (900 μL, 350 μM) with the enzyme (150 μL, 60 μM) at 37° C. for 7 days. To preclude any pH-dependent effects on the enzyme's activity, the pH value was kept at pH 6.9±0.5 in all degradation experiments.
The enzyme concentration was selected such that the reference α-peptide SEQ ID NO 23 was completely degraded in less than 1 hour. In case of the α-peptide SEQ ID NO 23, aliquots (70 μL) were periodically taken at 0 min, 5 min, 10 min, 15 min, 20 min and 30 min, while for the mixed α/β-peptides aliquots (70 μL) were taken at 0 min, 20 min, 30 min, 1 h, 2 h, 5 h, 1 day, 2 days, 3 days, 4 days, 5 days and 6 days. 5 μL of 25% AcOH in water (v/v) were added and the degradation was monitored by HPLC analysis. After just 30 min of exposure to elastase, the reference α-peptide SEQ ID NO 23 was completely degraded. The enzymatic degradation of mixed α/β-peptides SEQ ID NO 1, SEQ ID NO 2 and SEQ ID NO 3 was remarkably slower and lasted several days. Mixed α/β-peptides SEQ ID NO 1 and SEQ ID NO 2 were completely consumed after 6 days whilst mixed α/β-peptide SEQ ID NO 1, SEQ ID NO 3 was degraded after 3 days.

[3] = Peptide self-assembly / gelation conditions; format: physicochemical; conditions: TFA salt
Method: Peptide self-assembly was analyzed in i) a PBS solution (10 mM), ii) a PBS/mQ mixture (1:1 v:v, mQ water with a resistivity of […]) or iii) a NaCl aqueous solution (150 mM). The TFA salt of reference peptide SEQ NO. 23 (1 mg) was dissolved in 50 μl mQ water, followed by the addition of 50 μl PBS solution. This mixture was left to rest overnight, resulting in a 1% w/v hydrogel. The TFA salt of mixed α/β-peptides SEQ ID NO 1 and SEQ ID NO 2 (2 mg) was dissolved in mQ (100 μL) and PBS/mQ mixture (100 μL), respectively. […] The TFA salt of mixed α/β-peptide SEQ ID NO 3 (3 mg) was dissolved in PBS (100 μL) to probe gelation. All self-assembled gels were analyzed by circular dichroism (CD) and Fourier transform infrared (FT-IR) spectroscopy, as well as cryogenic transmission electron microscopy (Cryo-TEM).
(SEQ ID NO:22 (=10-mer)), 100 μl mQ water was added to 2 mg of TFA-salt of pure peptide, then vortexed and sonicated. As a result, a transparent self-supporting gel was formed immediately. A gelation condition of 2 w/v % in mQ water was found.
for H-Fβ^2hFEFQFK-NH2 (SEQ ID NO:19), 100 μl of PBS was added to 2 mg of TFA-salt of pure peptide, then vortexed and sonicated. After overnight resting, a self-supporting gel was formed. A gelation condition of 2 w/v % in PBS was determined.

[4] = Erosion / general stability of hydrogel without enzyme (PBS on top); format: physicochemical
Method: (A). The peptide hydrogel (1 mL) was prepared in a 10 mL glass tube using the appropriate gelation conditions (see peptide self-assembly in example 2). After leaving the hydrogel to rest overnight the degradation evaluation was started. First, general stability (without the incubation of an enzyme) was evaluated for α-peptide SEQ ID NO 23: 3 mL of mQ water was gently placed on top of the hydrogel and erosion experiments were performed by placing 3 mL PBS solution (10 mM) on top of the hydrogel to assess the hydrogels macroscopic decay in time. […] After 24 hours there was a small loss in volume (0.1 mL) of the formed hydrogel and the aggregation remained visible at the hydrogel surface. The PBS fraction was recollected and measured as 3.1 mL, in agreement with the 0.1 mL volume loss of the hydrogel. After 4 days the hydrogel was completely disintegrated into opaque aggregated pieces sticking to the bottom of the glass tube. The collected solution was measured to be 3.8 mL.

[5] = 3 mL PBS on top, after 24 hours

physical stability: time without observable volume loss (elastase [1]; hydrogel with elastase) | time to complete degradation by elastase (elastase [2]; HPLC) | hydrogel volume relative to original volume (elastase [1]; hydrogel with elastase, after 35 days) | hydrogel concentration obtained ([3]; 50 μl mQ water + 50 μl PBS, rest overnight) | time of gelation (self-supporting gel formed) ([3]; at its own gelation condition) | time at which hydrogel changed into an opaque structure (elastase [1]) | gel degradation time (hydrogel unstable/fluid-like) (elastase [1]) | time to complete degradation by elastase (elastase [2]; enzyme concentration selected for this) | hydrogel volume ([4]; 1 mL hydrogel, 3 mL PBS 10 mM on top, after 2 hours) | PBS fraction recollected [4, 5] | loss in volume of hydrogel [4, 5] | collected solution ([4]; 3 mL PBS on top, after 4 days) | time to complete disintegration of hydrogel ([4]; 3 mL PBS on top, no enzyme) | collected liquid portion on top of the hydrogel (elastase [1]; hydrogel with elastase, during the first 10 hours) | Compound | macroscopic aggregation / physical degradation (elastase [1]; hydrogel with elastase)
over 42 days | 3 days | – | – | – | – | – | – | – | – | – | – | – | – | NCCCC[C@H](NC(=O)[C@H](Cc1ccc(O)cc1)NC(=O)C[C@H](Cc1ccccc1)NC(=O)[C@H](CCC(N)=O)NC(=O)[C@H](Cc1ccc(O)cc1)NC(=O)C[C@H](Cc1ccccc1)NC(=O)[C@H](CCC(=O)O)NC(=O)[C@@H](N)Cc1ccccc1)C(N)=O [SEQ ID NO 3, H-Phe-Glu-β^3hPhe-Tyr-Gln-β^3hPhe-Tyr-Lys-NH2] (H-FE[β3hF]YQ[β3hF]YK-NH2) | no significant physical degradation nor aggregation
– | 6 days | approximately half | – | – | – | – | – | – | – | – | – | – | – | NCCCC[C@H](NC(=O)[C@H](Cc1ccccc1)NC(=O)C[C@H](Cc1ccccc1)NC(=O)[C@H](CCC(N)=O)NC(=O)[C@H](Cc1ccccc1)NC(=O)C[C@H](Cc1ccccc1)NC(=O)[C@H](CCC(=O)O)NC(=O)[C@@H](N)Cc1ccccc1)C(N)=O [SEQ ID NO 2, H-Phe-Glu-β^3hPhe-Phe-Gln-β^3hPhe-Phe-Lys-NH2] (H-FE[β3hF]FQ[β3hF]FK-NH2) | no macroscopic aggregation was observed
– | 0.0208 days | – | 1 % w/v | overnight | 2 days | 3.5 days | less than 1 hour | 1 mL | 3.1 mL | 0.1 mL | 3.8 mL | 4 days | – | H-FEFQFK-OH [SEQ ID NO 23, H-FEFQFK-OH, reference compound] | –
– | 6 days and 3 days | – | – | – | one | 5.5 days | – | – | – | – | – | – | 3 mL | NCCCC[C@H](NC(=O)[C@H](Cc1ccccc1)NC(=O)C[C@H](Cc1ccccc1)NC(=O)[C@H](CCC(N)=O)NC(=O)[C@H](Cc1ccccc1)NC(=O)C[C@H](Cc1ccccc1)NC(=O)[C@H](CCC(=O)O)NC(=O)[C@@H](N)Cc1ccccc1)C(=O)O [SEQ ID NO 1, H-Phe-Glu-β^3hPhe-Phe-Gln-β^3hPhe-Phe-Lys-OH] (H-FE[β3hF]FQ[β3hF]FK-OH) | –
